Laboratory results from PubChem BioAssay AID2060483 (Molecular Pharmacology Branch, DTP, NCI, 2025).

System: K24384-001-R-PDC complex spheroids, viability
Test: Anticancer human tumor K24384-001-R-PDC patient-derived pancreatic adenocarcinoma cell line growth inhibition [GQUAD]
Conditions: for IC50: curve of first compound; for viability, T/C: stronger effect = lower value
Method in brief: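 Viability of tumor cells grown as complex spheroids with endothelial and stromal cells, exposed to drug combinations. Top concentration at or near clinical Cmax (else 10 microM), diluted in half-log increments.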

[1] = second compound 0.0316 µM, first compound 0.0316 µM
[2] = second compound 0.0316 µM, first compound 0.316 µM
[3] = second compound 0.1 µM, first compound 0.0316 µM
[4] = second compound 0.1 µM, first compound 0.316 µM
[5] = second compound 0.316 µM, first compound 0.0316 µM
[6] = second compound 0.316 µM, first compound 0.316 µM
[7] = second compound 1 µM, first compound 0.0316 µM
[8] = second compound 1 µM, first compound 0.316 µM
[9] = second compound 3.16 µM, first compound 0.0316 µM
[10] = second compound 3.16 µM, first compound 0.316 µM
[11] = second compound 10 µM, first compound 0.0316 µM
[12] = second compound 10 µM, first compound 0.316 µM
[13] = second compound 0.0316 µM, first compound 0.1 µM
[14] = second compound 0.0316 µM, first compound 1 µM
[15] = second compound 0.0316 µM, first compound 3.16 µM
[16] = second compound 0.0316 µM, first compound 10 µM
[17] = second compound 0.1 µM, first compound 0.1 µM
[18] = second compound 0.1 µM, first compound 1 µM
[19] = second compound 0.1 µM, first compound 3.16 µM
[20] = second compound 0.1 µM, first compound 10 µM
[21] = second compound 0.316 µM, first compound 0.1 µM
[22] = second compound 0.316 µM, first compound 1 µM
[23] = second compound 0.316 µM, first compound 3.16 µM
[24] = second compound 0.316 µM, first compound 10 µM
[25] = second compound 1 µM, first compound 0.1 µM
[26] = second compound 1 µM, first compound 1 µM
[27] = second compound 1 µM, first compound 3.16 µM
[28] = second compound 1 µM, first compound 10 µM
[29] = second compound 3.16 µM, first compound 0.1 µM
[30] = second compound 3.16 µM, first compound 1 µM
[31] = second compound 3.16 µM, first compound 3.16 µM
[32] = second compound 3.16 µM, first compound 10 µM
[33] = second compound 10 µM, first compound 0.1 µM
[34] = second compound 10 µM, first compound 1 µM
[35] = second compound 10 µM, first compound 3.16 µM
[36] = second compound 10 µM, first compound 10 µM
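Note: spheroids exposed to compounds for seven days.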

Compound: Cc1[nH]c2ccccc2c1CCNCc1ccc(/C=C/C(=O)NO)cc1 + Cc1cnc(CNC(=O)c2c(=O)c3ccc(N4CCCN(C)CC4)nc3n3c2sc2ccccc23)cn1
- IC50 (second compound 0.0316 µM): 0.118 µM
- IC50 (second compound 0.1 µM): 0.0794 µM
- IC50 (second compound 0.316 µM): 0.0395 µM
- IC50 (second compound 1 µM): < 0.000999 µM
- IC50 (second compound 3.16 µM): < 0.000999 µM
- IC50 (second compound 10 µM): < 0.000999 µM
- viability, T/C (second compound 0.0316 µM, first compound 0.000999 µM): 83.9%
- viability, T/C (second compound 0.0316 µM, first compound 0.00316 µM): 75.8%
- viability, T/C (second compound 0.0316 µM, first compound 0.00999 µM): 109%
- viability, T/C [1]: 82.9%
- viability, T/C (second compound 0.0316 µM, first compound 0.0999 µM): 57.4%
- viability, T/C [2]: 6.49%
- viability, T/C (second compound 0.1 µM, first compound 0.000999 µM): 65.4%
- viability, T/C (second compound 0.1 µM, first compound 0.00316 µM): 81.2%
- viability, T/C (second compound 0.1 µM, first compound 0.00999 µM): 74.7%
- viability, T/C [3]: 57%
- viability, T/C (second compound 0.1 µM, first compound 0.0999 µM): 48.9%
- viability, T/C [4]: 5.15%
- viability, T/C (second compound 0.316 µM, first compound 0.000999 µM): 45.5%
- viability, T/C (second compound 0.316 µM, first compound 0.00316 µM): 54.4%
- viability, T/C (second compound 0.316 µM, first compound 0.00999 µM): 63.1%
- viability, T/C [5]: 44.8%
- viability, T/C (second compound 0.316 µM, first compound 0.0999 µM): 45.6%
- viability, T/C [6]: 1.86%
- viability, T/C (second compound 1 µM, first compound 0.000999 µM): 41.3%
- viability, T/C (second compound 1 µM, first compound 0.00316 µM): 41.8%
- viability, T/C (second compound 1 µM, first compound 0.00999 µM): 37.3%
- viability, T/C [7]: 37.3%
- viability, T/C (second compound 1 µM, first compound 0.0999 µM): 28.2%
- viability, T/C [8]: 0.15%
- viability, T/C (second compound 3.16 µM, first compound 0.000999 µM): 33.8%
- viability, T/C (second compound 3.16 µM, first compound 0.00316 µM): 33.3%
- viability, T/C (second compound 3.16 µM, first compound 0.00999 µM): 35.4%
- viability, T/C [9]: 34.6%
- viability, T/C (second compound 3.16 µM, first compound 0.0999 µM): 13.5%
- viability, T/C [10]: 0.12%
- viability, T/C (second compound 10 µM, first compound 0.000999 µM): 0.27%
- viability, T/C (second compound 10 µM, first compound 0.00316 µM): 0.26%
- viability, T/C (second compound 10 µM, first compound 0.00999 µM): 0.28%
- viability, T/C [11]: 0.32%
- viability, T/C (second compound 10 µM, first compound 0.0999 µM): 0.26%
- viability, T/C [12]: 0.21%

Compound: COc1ccc([C@@H](O)c2cc(-c3ncnc4cc(N5CCOCC5)ccc34)c(F)cc2Cl)nn1 + Cc1[nH]c2ccc(F)cc2c1-c1nc2c3cccnc3c3ncccc3c2[nH]1
- IC50 (second compound 0.0316 µM): 2.99 µM
- IC50 (second compound 0.1 µM): 2.48 µM
- IC50 (second compound 0.316 µM): 4.28 µM
- IC50 (second compound 1 µM): 3.38 µM
- IC50 (second compound 3.16 µM): 2.1 µM
- IC50 (second compound 10 µM): 1.69 µM
- viability, T/C [1]: 100%
- viability, T/C [13]: 89.6%
- viability, T/C [2]: 68.3%
- viability, T/C [14]: 64.6%
- viability, T/C [15]: 49.1%
- viability, T/C [16]: 38.6%
- viability, T/C [3]: 79.7%
- viability, T/C [17]: 95.4%
- viability, T/C [4]: 92.7%
- viability, T/C [18]: 73%
- viability, T/C [19]: 44.5%
- viability, T/C [20]: 31.9%
- viability, T/C [5]: 101%
- viability, T/C [21]: 115%
- viability, T/C [6]: 99.4%
- viability, T/C [22]: 66.8%
- viability, T/C [23]: 65.1%
- viability, T/C [24]: 28.4%
- viability, T/C [7]: 81.7%
- viability, T/C [25]: 99.5%
- viability, T/C [8]: 83.9%
- viability, T/C [26]: 67.1%
- viability, T/C [27]: 54.1%
- viability, T/C [28]: 30.3%
- viability, T/C [9]: 87.9%
- viability, T/C [29]: 76.8%
- viability, T/C [10]: 58%
- viability, T/C [30]: 73.5%
- viability, T/C [31]: 41.7%
- viability, T/C [32]: 19.3%
- viability, T/C [11]: 48.7%
- viability, T/C [33]: 85.9%
- viability, T/C [12]: 58.9%
- viability, T/C [34]: 66.3%
- viability, T/C [35]: 32.3%
- viability, T/C [36]: 15.8%

Compound: COc1cc(C2c3cc4c(cc3C(OC3OC5COC(C)OC5C(O)C3O)C3COC(=O)C23)OCO4)cc(OC)c1O (stereo unspecified) + Cc1cnc(CNC(=O)c2c(=O)c3ccc(N4CCCN(C)CC4)nc3n3c2sc2ccccc23)cn1
- IC50 (second compound 0.0316 µM): 0.865 µM
- IC50 (second compound 0.1 µM): 2.38 µM
- IC50 (second compound 0.316 µM): 0.0316 µM
- IC50 (second compound 1 µM): < 0.0316 µM
- IC50 (second compound 3.16 µM): < 0.0316 µM
- IC50 (second compound 10 µM): < 0.0316 µM
- viability, T/C [1]: 79.9%
- viability, T/C [13]: 71.2%
- viability, T/C [2]: 99.5%
- viability, T/C [14]: 45.1%
- viability, T/C [15]: 45.3%
- viability, T/C [16]: 25.9%
- viability, T/C [3]: 62.1%
- viability, T/C [17]: 68.8%
- viability, T/C [4]: 61.3%
- viability, T/C [18]: 57.5%
- viability, T/C [19]: 47.8%
- viability, T/C [20]: 34.1%
- viability, T/C [5]: 46.1%
- viability, T/C [21]: 51.4%
- viability, T/C [6]: 46%
- viability, T/C [22]: 46.4%
- viability, T/C [23]: 52.4%
- viability, T/C [24]: 34.8%
- viability, T/C [7]: 35.1%
- viability, T/C [25]: 49.1%
- viability, T/C [8]: 38.1%
- viability, T/C [26]: 46%
- viability, T/C [27]: 43.4%
- viability, T/C [28]: 30.8%
- viability, T/C [9]: 36.3%
- viability, T/C [29]: 44.9%
- viability, T/C [10]: 41.2%
- viability, T/C [30]: 47.1%
- viability, T/C [31]: 39%
- viability, T/C [32]: 26%
- viability, T/C [11]: 30.4%
- viability, T/C [33]: 28.1%
- viability, T/C [12]: 32.3%
- viability, T/C [34]: 33%
- viability, T/C [35]: 10.4%
- viability, T/C [36]: 0.63%
